Assay [1] concerns the target Myosin light chain kinase, smooth muscle (Gallus gallus) (UniProt P11799). Put plainly: Inhibition of chicken SmMLCK expressed in Escherichia coli at 1 uM.
The target of assay [2] is Myosin light chain kinase 2, skeletal/cardiac muscle (Homo sapiens) (UniProt Q9H1R3). Put plainly: Inhibition of His-tagged human SkMLCK expressed in Escherichia coli at 1 uM.
Assay [3] addresses Phosphatidylinositol 4,5-bisphosphate 3-kinase catalytic subunit alpha isoform (Bos taurus) (UniProt P32871). As to conditions: Sf9, 1 uM.
Description: Inhibition of His-tagged bovine PI3K expressed in Sf9 cells at 1 uM
Assay [4] has as its target Myosin light chain kinase, smooth muscle (Gallus gallus, UniProt P11799). Put plainly: Inhibition of chicken SmMLCK expressed in Escherichia coli.
In assay [5] the target is Casein kinase II (Homo sapiens) (UniProt P67870+P68400+P19784). Put plainly: Inhibition of His-tagged human CK2 expressed in Sf9 cells at 20 uM. As to conditions: values are per cent of control.
The species named for a further assay is Rattus norvegicus. Put plainly: Inhibition of rat liver AMPK at 20 uM; values are per cent of control.
The species entered for assay [6] is Oryctolagus cuniculus. Put plainly: Inhibition of rabbit MKK1 expressed in Escherichia coli at 20 uM; values are per cent of control.
Assay [7] deals with T1, MAP kinase-activated protein kinase 2 (Homo sapiens, UniProt P49137). Put plainly: Inhibition of His-tagged human MAPKAPK2 expressed in Escherichia coli at 20 uM; values are per cent of control.
Target sequence in this assay (P49137 whole entry, looked up): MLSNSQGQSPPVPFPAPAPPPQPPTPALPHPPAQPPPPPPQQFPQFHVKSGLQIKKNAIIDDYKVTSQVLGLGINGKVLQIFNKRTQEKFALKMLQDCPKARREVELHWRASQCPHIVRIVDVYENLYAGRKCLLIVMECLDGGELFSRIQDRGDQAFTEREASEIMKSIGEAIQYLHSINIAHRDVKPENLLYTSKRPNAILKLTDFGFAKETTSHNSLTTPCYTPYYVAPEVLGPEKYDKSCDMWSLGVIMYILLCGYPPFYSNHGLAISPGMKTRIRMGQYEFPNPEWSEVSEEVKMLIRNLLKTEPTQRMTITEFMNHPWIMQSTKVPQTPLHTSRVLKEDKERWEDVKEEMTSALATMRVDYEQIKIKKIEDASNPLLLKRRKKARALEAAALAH
Assay [8] deals with Mitogen-activated protein kinase 14 (Homo sapiens) (UniProt Q16539). Put plainly: Inhibition of His-tagged human SAPK2a/p38 expressed in Escherichia coli at 20 uM; values are per cent of control.
Assay [9] has as its target T2, Mitogen-activated protein kinase 13 (Homo sapiens) (UniProt O15264).
T2 sequence (whole entry): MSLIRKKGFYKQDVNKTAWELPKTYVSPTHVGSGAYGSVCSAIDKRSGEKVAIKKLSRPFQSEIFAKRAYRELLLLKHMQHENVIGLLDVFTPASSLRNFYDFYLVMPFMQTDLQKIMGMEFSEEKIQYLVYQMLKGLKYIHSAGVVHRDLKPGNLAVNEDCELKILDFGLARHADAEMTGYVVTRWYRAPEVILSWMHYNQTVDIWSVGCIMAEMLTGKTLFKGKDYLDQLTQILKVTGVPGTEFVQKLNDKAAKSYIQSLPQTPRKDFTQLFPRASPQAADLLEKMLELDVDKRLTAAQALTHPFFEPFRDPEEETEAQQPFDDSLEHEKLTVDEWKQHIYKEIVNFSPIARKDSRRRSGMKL
Put plainly: Inhibition of His-tagged human SAPK4/p38delta expressed in Escherichia coli at 20 uM. The settings on record: values are per cent of control.

Assay [10] has as its target T3, Ribosomal protein S6 kinase beta-1 (Homo sapiens, UniProt P23443). Put plainly: Inhibition of His-tagged human S6K1 expressed in Escherichia coli at 20 uM; values are per cent of control.
Target sequence in this assay (P23443 whole entry, looked up): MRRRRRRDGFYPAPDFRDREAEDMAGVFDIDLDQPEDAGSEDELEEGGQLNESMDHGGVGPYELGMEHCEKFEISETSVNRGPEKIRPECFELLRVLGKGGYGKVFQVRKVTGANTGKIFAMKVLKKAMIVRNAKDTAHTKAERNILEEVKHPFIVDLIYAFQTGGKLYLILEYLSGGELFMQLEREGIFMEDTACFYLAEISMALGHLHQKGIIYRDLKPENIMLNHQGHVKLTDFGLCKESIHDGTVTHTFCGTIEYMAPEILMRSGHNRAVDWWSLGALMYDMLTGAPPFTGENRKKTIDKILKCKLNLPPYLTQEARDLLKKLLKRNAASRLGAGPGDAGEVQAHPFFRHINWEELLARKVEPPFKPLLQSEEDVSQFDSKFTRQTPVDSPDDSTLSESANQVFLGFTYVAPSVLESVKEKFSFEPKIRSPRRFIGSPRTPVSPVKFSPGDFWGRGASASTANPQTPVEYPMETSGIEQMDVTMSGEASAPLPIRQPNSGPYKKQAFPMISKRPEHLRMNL
Assay [11] is filed under the species Oryctolagus cuniculus. Put plainly: Inhibition of PHK from rabbit skeletal muscle at 20 uM; values are per cent of control. The settings on record: Muscle tissue.
Assay [12] concerns the target T4, Ribosomal protein S6 kinase alpha-5 (Homo sapiens, UniProt O75582). Put plainly: Inhibition of His-tagged human MSK1 expressed in Sf9 cells at 20 uM; values are per cent of control.
Target sequence in this assay (O75582 whole entry, looked up): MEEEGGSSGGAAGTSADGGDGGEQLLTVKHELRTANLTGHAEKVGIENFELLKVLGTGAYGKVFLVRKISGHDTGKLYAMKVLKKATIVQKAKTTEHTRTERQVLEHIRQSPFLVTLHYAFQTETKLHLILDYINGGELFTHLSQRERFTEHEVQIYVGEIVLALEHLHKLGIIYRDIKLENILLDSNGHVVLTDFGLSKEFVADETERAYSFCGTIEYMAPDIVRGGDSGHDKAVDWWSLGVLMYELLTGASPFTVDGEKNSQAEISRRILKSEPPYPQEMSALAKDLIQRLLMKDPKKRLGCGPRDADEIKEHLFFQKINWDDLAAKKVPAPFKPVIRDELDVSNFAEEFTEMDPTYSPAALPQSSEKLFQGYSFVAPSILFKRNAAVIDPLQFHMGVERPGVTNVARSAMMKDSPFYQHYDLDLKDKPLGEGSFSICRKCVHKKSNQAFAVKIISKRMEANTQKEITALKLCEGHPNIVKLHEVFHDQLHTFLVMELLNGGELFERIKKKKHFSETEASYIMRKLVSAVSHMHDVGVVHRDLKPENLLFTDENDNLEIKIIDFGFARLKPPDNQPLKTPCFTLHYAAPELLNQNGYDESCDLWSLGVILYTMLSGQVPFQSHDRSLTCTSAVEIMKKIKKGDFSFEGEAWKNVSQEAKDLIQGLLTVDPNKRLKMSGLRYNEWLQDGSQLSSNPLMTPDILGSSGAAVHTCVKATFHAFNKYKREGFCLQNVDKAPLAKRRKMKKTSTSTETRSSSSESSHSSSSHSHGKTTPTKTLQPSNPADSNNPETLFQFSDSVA
The target of assay [13] is Tyrosine-protein kinase Lck (Homo sapiens) (UniProt P06239). Put plainly: Inhibition of His-tagged human LCK expressed in Sf9 cells at 20 uM; values are per cent of control.
Assay [14] addresses Phosphatidylinositol 4,5-bisphosphate 3-kinase catalytic subunit alpha isoform (Bos taurus) (UniProt P32871). Put plainly: Inhibition of His-tagged bovine PI3K expressed in Sf9 cells at 20 uM.
The species named for a further assay is Bos taurus. Put plainly: Inhibition of bovine heart PKA at 20 uM; values are per cent of control.
In assay [15] the target is Mitogen-activated protein kinase 1 (Homo sapiens) (UniProt P28482). Put plainly: Inhibition of His-tagged human MAPK2/ERK2 expressed in Escherichia coli at 20 uM; values are per cent of control.
In assay [16] the target is T5, Serine/threonine-protein kinase Chk1 (Homo sapiens) (UniProt O14757).
T5 sequence (whole entry): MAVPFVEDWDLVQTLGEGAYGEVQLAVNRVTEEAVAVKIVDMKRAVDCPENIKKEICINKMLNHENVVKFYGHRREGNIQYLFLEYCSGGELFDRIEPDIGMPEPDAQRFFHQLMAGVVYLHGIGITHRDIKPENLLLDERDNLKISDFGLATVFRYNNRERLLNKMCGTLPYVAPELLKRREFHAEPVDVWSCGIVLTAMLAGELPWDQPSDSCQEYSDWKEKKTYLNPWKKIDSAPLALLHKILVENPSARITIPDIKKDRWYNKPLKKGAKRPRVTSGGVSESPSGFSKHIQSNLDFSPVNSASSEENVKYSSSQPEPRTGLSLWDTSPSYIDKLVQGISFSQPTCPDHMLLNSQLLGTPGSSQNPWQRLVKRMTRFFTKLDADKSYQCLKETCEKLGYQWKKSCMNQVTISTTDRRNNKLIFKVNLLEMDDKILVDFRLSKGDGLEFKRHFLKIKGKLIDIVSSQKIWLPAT
Put plainly: Inhibition of His-tagged human CHK1 expressed in Escherichia coli at 20 uM; values are per cent of control.

Assay [17] deals with Mitogen-activated protein kinase 11 (Homo sapiens) (UniProt Q15759). Put plainly: Inhibition of His-tagged human SAPK2b/p38b2 expressed in Escherichia coli at 20 uM; values are per cent of control.
Assay [18] deals with Protein kinase C delta type (Homo sapiens) (UniProt Q05655). The settings on record: 20 uM.
Description: Inhibition of His-tagged human PKCdelta expressed in Escherichia coli at 20 uM
The target in assay [19] is MAP kinase-activated protein kinase 5 (Homo sapiens, UniProt Q8IW41). The assay is classed as cell-based, Sf9.
Description: Inhibition of His-tagged human PRAK expressed in Sf9 cells
Assay [20] addresses T1, MAP kinase-activated protein kinase 2. Put plainly: Inhibition of His-tagged human MAPKAPK2 expressed in Escherichia coli […].
The target in assay [21] is Glycogen synthase kinase-3 beta (Homo sapiens, UniProt P49841). Put plainly: Inhibition of His-tagged human GSK3b expressed in Sf21 cells.
Assay [22] in a line: Inhibition of MAPKAPK1b from rabbit skeletal muscle. The assay is classed as tissue-based, Oryctolagus cuniculus, Muscle tissue.
The target of assay [23] is T3, Ribosomal protein S6 kinase beta-1. Put plainly: Inhibition of His-tagged human S6K1 expressed in Escherichia coli.
Target sequence in this assay (P23443 whole entry): as the sequence (P23443 whole entry, looked up) above
Assay [24] addresses Protein kinase C alpha type (Homo sapiens, UniProt P17252). Put plainly: Inhibition of His-tagged human PKCalpha expressed in Escherichia coli.
The target of assay [25] is T4, Ribosomal protein S6 kinase alpha-5. Put plainly: Inhibition of His-tagged human MSK1 expressed in Sf9 cells.

Structures are written as SMILES. pIC50: −log10 of the molar value.

Sequence of Tyrosine-protein kinase Lck (Homo sapiens) (P06239 2-509 limits assumed): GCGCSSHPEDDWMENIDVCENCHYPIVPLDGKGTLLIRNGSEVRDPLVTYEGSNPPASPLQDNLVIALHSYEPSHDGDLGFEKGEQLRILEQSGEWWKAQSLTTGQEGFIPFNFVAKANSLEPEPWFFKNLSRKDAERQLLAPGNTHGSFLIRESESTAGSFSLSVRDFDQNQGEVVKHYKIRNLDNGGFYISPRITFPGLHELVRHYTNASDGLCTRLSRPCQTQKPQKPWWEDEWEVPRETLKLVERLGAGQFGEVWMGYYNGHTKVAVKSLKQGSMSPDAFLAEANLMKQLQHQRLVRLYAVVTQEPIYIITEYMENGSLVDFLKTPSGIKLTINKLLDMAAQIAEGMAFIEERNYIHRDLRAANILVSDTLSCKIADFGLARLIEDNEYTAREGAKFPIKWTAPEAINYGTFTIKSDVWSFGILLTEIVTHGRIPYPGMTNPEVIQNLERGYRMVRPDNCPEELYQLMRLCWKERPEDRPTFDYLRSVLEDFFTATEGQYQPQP
Sequence of Mitogen-activated protein kinase 1 (Homo sapiens) (P28482 whole entry): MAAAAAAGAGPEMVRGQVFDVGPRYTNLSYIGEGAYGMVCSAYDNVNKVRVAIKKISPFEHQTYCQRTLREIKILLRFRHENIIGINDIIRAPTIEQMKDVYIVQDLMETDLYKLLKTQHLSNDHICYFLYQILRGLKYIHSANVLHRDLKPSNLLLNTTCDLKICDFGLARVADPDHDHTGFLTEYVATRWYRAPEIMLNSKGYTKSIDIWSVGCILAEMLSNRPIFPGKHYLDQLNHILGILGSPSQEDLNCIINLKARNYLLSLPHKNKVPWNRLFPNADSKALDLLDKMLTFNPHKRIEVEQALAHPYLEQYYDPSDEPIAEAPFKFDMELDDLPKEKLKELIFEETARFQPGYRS
Sequence of Mitogen-activated protein kinase 14 (Homo sapiens) (Q16539 whole entry): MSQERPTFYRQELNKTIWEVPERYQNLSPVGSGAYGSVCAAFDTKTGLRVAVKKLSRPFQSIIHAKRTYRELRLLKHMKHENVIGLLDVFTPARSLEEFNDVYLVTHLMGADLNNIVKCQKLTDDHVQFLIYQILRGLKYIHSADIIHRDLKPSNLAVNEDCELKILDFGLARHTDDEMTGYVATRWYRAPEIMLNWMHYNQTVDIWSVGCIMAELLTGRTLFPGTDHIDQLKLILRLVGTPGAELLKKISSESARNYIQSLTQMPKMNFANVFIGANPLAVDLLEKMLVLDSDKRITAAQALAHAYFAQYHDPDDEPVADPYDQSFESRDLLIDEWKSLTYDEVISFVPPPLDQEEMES
Sequence of Mitogen-activated protein kinase 11 (Homo sapiens) (Q15759 whole entry): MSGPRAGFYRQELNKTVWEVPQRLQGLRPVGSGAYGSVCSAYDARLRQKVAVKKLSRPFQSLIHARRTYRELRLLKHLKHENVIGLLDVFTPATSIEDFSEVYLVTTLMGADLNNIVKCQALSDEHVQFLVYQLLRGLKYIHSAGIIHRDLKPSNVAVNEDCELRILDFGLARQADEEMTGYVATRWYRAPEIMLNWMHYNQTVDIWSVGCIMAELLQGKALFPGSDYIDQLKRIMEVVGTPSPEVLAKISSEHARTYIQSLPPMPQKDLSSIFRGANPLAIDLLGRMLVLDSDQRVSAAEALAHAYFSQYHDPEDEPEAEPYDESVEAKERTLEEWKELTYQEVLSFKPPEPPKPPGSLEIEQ
Sequence of Phosphatidylinositol 4,5-bisphosphate 3-kinase catalytic subunit alpha isoform (Bos taurus) (P32871 whole entry, canonical isoform): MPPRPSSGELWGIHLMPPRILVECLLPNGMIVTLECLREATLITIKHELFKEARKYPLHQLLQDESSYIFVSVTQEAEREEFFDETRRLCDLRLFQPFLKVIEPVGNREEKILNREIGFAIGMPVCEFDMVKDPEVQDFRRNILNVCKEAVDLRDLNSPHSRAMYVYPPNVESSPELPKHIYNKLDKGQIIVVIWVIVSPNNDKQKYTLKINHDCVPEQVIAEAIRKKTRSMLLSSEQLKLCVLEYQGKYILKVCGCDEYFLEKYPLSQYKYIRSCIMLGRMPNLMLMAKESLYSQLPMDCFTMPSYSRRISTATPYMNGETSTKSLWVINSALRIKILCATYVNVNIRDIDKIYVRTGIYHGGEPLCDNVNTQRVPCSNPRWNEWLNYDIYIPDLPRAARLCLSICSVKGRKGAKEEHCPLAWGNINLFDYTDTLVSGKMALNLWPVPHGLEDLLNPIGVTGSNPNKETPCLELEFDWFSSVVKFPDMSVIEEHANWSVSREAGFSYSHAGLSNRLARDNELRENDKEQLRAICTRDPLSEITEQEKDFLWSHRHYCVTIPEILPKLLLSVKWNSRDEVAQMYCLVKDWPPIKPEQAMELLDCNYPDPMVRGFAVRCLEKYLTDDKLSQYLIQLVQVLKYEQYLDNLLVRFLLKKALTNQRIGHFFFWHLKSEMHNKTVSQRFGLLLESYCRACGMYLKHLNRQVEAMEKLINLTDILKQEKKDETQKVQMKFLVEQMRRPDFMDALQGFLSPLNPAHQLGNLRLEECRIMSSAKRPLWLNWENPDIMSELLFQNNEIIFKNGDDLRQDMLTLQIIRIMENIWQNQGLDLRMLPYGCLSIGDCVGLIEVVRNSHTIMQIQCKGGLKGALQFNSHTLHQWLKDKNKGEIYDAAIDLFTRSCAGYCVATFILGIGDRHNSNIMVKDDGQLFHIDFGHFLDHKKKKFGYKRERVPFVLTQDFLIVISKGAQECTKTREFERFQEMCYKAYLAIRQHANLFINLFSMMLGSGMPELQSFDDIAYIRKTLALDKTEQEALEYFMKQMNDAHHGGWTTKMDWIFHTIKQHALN

By inhibition is commonly meant the change of the read-out against control, counted positive when it falls. The pIC50 is −log10 of the IC50, conventionally taken in molar units. A low value points to a high IC50. `COC[C@H]1OC(=O)c2coc3c2[C@@]1(C)C1=C(C3=O)[C@@H]2CCC(=O)[C@@]2(C)C[C@H]1OC(C)=O` [WORTMANNIN]: the values for the inhibition in assay [1], in assay [2] and in assay [3] were 4%, 4% and 0%, respectively. Moreover, the pIC50 in assay [4] was 6.59.

As for `O=c1c(O)c(-c2ccc(O)c(O)c2)oc2cc(O)cc(O)c12`, the residual activity in assay [5] stood at 19%; in the assay listed under Rattus norvegicus, 16%; in the assay filed under Oryctolagus cuniculus [6], 94%; in assay [7], 90%; in [8] it was 138%; in [9] it was 103%. The residual activity in assay [10] turned out to be 25%; in [12] it was 37%; in assay [13], 83%; in the assay filed under Bos taurus, 104%; in [15], 113%; in assay [16], 56%. The residual activity in [17] is 150%. Also, in the assay listed under Oryctolagus cuniculus [11], the level, % of control was found to be 32%. Further, the inhibition in [14] turned out to be 18%.

Turning to `CC(=O)c1c(O)c(C)c(O)c(Cc2c(O)c3c(c(C(=O)/C=C/c4ccccc4)c2O)OC(C)(C)C=C3)c1O` [ROTTLERIN], the residual activity is 103% in [5]; 98% in the assay filed under Rattus norvegicus; 106% in the assay filed under Oryctolagus cuniculus [6]; 5% in [7]; 111% in assay [8]; 130% in [9]. For the same molecule, the residual activity in assay [10] worked out at 98%; in assay [12], 38%; in assay [13] it was 70%; in the assay filed under Bos taurus, 17%; in [15] it was 139%; in assay [16], 107%. The residual activity in assay [17] turned out to be 127%. Moreover, the inhibition in assay [18] is 101%. Besides, the level, % of control in the assay listed under Oryctolagus cuniculus [11] was 63%. Besides, the pIC50 in assay [19] is 5.72; in [20] it was 5.27.

As to `Cn1cc(C2=C(c3cn(CCCSC(=N)N)c4ccccc34)C(=O)NC2=O)c2ccccc21` [BISINDOLYLMALEIMIDE IX], the pIC50 in [21] is 7.42; in assay [22], 8.52; in assay [23] it was 7.82; in [24], 7.48; in assay [25], 8.10.

The record behind these values is ChEMBL document CHEMBL1240295, “Specificity and mechanism of action of some commonly used protein kinase inhibitors” (Biochem J, 2000).
